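Where inhibition never reached the appropriate level, the endpoint shown equals the highest concentration tested. Otherwise, values were interpolated linearly from a five-concentration, 48-hour dose response in 96-well plates. TGI denotes the concentration required for complete inhibition of growth.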
Experiments:
Assay in all cases: DTP human tumour cell line panel, 48 h
SK-MEL-2 melanoma = system: SK-MEL-2 melanoma
U251 CNS = system: U251 CNS
KM12 colon = system: KM12 colon
CCRF-CEM leukemia = system: CCRF-CEM leukemia
SF-539 CNS = system: SF-539 CNS
MALME-3M melanoma = system: MALME-3M melanoma
OVCAR-5 ovarian = system: OVCAR-5 ovarian
NCI/ADR-RES ovarian = system: NCI/ADR-RES ovarian
MOLT-4 leukemia = system: MOLT-4 leukemia
PC-3 prostate = system: PC-3 prostate
LOX IMVI melanoma = system: LOX IMVI melanoma
SR leukemia = system: SR leukemia
M14 melanoma = system: M14 melanoma
SF-268 CNS = system: SF-268 CNS
COLO 205 colon = system: COLO 205 colon
HL-60(TB) leukemia = system: HL-60(TB) leukemia
SF-295 CNS = system: SF-295 CNS
SN12C renal = system: SN12C renal
A549 NSCLC = system: A549 NSCLC
ACHN renal = system: ACHN renal
A498 renal = system: A498 renal
UACC-257 melanoma = system: UACC-257 melanoma
OVCAR-4 ovarian = system: OVCAR-4 ovarian
HOP-92 NSCLC = system: HOP-92 NSCLC
MCF7 breast = system: MCF7 breast
SNB-19 CNS = system: SNB-19 CNS
NCI-H522 lung = system: NCI-H522 lung
MDA-MB-231 breast = system: MDA-MB-231 breast
HCC-2998 colon = system: HCC-2998 colon
T-47D breast = system: T-47D breast
MDA-MB-435 = system: MDA-MB-435
CAKI-1 renal = system: CAKI-1 renal
SK-MEL-28 melanoma = system: SK-MEL-28 melanoma
DU-145 prostate = system: DU-145 prostate
SW-620 colon = system: SW-620 colon
RPMI-8226 leukemia = system: RPMI-8226 leukemia
RXF 393 renal = system: RXF 393 renal
TK-10 renal = system: TK-10 renal
UO-31 renal = system: UO-31 renal
SK-MEL-5 melanoma = system: SK-MEL-5 melanoma
OVCAR-8 ovarian = system: OVCAR-8 ovarian
IGROV1 ovarian = system: IGROV1 ovarian
EKVX NSCLC = system: EKVX NSCLC
HS 578T breast = system: HS 578T breast
OVCAR-3 ovarian = system: OVCAR-3 ovarian
SNB-75 CNS = system: SNB-75 CNS
NCI-H226 lung = system: NCI-H226 lung
UACC-62 melanoma = system: UACC-62 melanoma
BT-549 breast = system: BT-549 breast
MDA-N = system: MDA-N
K-562 leukemia = system: K-562 leukemia
786-0 renal = system: 786-0 renal
NCI-H460 lung = system: NCI-H460 lung
HCT-15 colon = system: HCT-15 colon

Measured: TGI

COc1ccc2c(=O)c3cc([N+](=O)[O-])ccc3n(C)c2c1
> 100 µM: all assays above
